In patent US20090030015A1, “NOVEL MULTI-CYCLIC COMPOUNDS” (REVOTAR BIOPHARMACEUTICALS AG, priority 2005, published 2009):

Assays:
[1] = target: T1, human L-Selectin-IgG-chimera (Homo sapiens, UniProt P14151); test: Sialyl Lewis X Tyrosine Sulfate Assay (sLex TSA), L-selectin; type: binding; conditions: sLexTSA
T1 construct: fused on or other part: human IgG Fc part, captured on the plate by goat anti human Fc antibody; a tag, no second protein
T1 sequence (P14151 39-318 limits assumed): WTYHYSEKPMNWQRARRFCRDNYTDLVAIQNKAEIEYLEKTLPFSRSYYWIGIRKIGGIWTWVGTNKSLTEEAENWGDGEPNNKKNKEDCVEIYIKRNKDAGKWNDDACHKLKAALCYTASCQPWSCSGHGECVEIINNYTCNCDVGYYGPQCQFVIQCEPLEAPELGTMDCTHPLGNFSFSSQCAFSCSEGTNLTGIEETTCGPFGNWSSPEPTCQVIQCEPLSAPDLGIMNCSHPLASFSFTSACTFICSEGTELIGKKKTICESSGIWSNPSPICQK
Description: (§1) Sialyl Lewis^X Tyrosine Sulfate Assay (sLe^x TSA):
(§2) Compounds of the present invention are assayed on a molecular level for their ability to inhibit the binding of P-, L-, or E-selectin chimeric molecules to sLe^x and tyrosinesulfate residues linked to a polymeric matrix as a PSGL-1 substitute. Selected IC50-values are determined.
(§3) Microtiter plates are coated overnight in carbonate buffer pH9.6 with goat anti human Fc mAB (10 μg/ml). After washing in assay buffer (25 mM 4-(2-hydroxyethyl)-1-piperazineethanesulfonic acid (HEPES), 150 mM NaCl, 1 mM CaCl2 pH7.4) and blocking (3% bovine serum albumin (BSA) in assay buffer) plates are incubated for 2 h at 37° C. with human P-Selectin-IgG-chimera (0.61 nM respectively 150 ng/mL) or human L-Selectin-IgG-chimera (0.61 nM respectively 89 ng/mL) or human E-Selectin-IgG-chimera (0.61 nM respectively 131 ng/mL). 5 μl of sLe^x-tyrosine sulfate polyacrylamide (1 mg/ml) carrying 15% sLe^x, 10% Tyrosine-sulfate and 5% biotin is complexed with 20 μl Streptavidin-Peroxidase solution (1 mg/ml) and 25 μl assay buffer without CaCl2. For use in the assay, the ligand complex is diluted 1:10000 in assay buffer and further diluted 1:1 with varying amounts of compounds in assay buffer incl. 2% DMSO. This mixture is added to the wells precoated with E- or P-selectin. After incubation for 2 h at 37° C., wells are washed for six times with in assay buffer incl. 0.005% Polyoxyethylenesorbitan monolaurate (TWEEN 20), developed for 10-15 min with 20 μl 3,3′,5,5′-tetramethylbenzidine (TMB)/H2O2 substrate solution and stopped with 20 μl 1M H2SO4. Bound sLe^x-Tyrosine sulfate ligand complex is determined by measuring optical density at 450 nm vs. 620 nm in a Fusion alpha-FP reader (sold from Packard Bioscience, Dreieich, Germany).

[2] = system: human P-selectin-IgG chimera; test: Flow chamber assay, cell adhesion and rolling under flow conditions, P-selectin; type: cell-based; conditions: normalized ratio of %-inhibition of compound divided by %-inhibition of bimosiamose; 125 μM compound; HL-60 cells; flow shear 1 dyne/cm^2
Description: (§4) Flow Chamber Assay/Cell Adhesion and Rolling Under Flow Conditions
(§5) To assess the capability of compounds to inhibit cell binding under dynamic conditions resembling the flow in a blood vessel, flow chamber assays addressing/testing binding of HL-60 cells/various cell lines to P-selectin, L-selectin and E-selectin chimeric molecules are performed.
(§6) Cell attachment under flow conditions is determined using a parallel flow chamber system. A 35 mm polystyrene culture dish is coated for 1 hour at room temperature with coating buffer (50 mM tris-(hydroxymethyl)aminomethane buffer (Tris), 150 mM NaCl, 2 mM CaCl2; pH 7.4) containing human E- or P-selectin-IgG chimera at concentrations of 2.5 μg/ml or 10 μg/ml, respectively. After removal of the coating solution non specific binding sites are blocked for an additional hour with 1% BSA in coating buffer at room temperature. After washing with assay buffer (“Roswell Park Memorial Institute 1640” (RPMI 1640)+10 mM HEPES) the dish is fitted into a parallel plate laminar flow chamber (sold from Glycotech, Rockville, Md.) and mounted on an inverted phase-contrast microscope (sold from Olympus, Hamburg, Germany) equipped with a CCD camera (JVC) that is connected to a PC. Employing a peristaltic pump (sold from Ismatec, Wertheim-Mondfeld, Germany) the re-circulating system is equilibrated with assay buffer containing 125 μM compound or vehicle control (DMSO). Cells (1 million/ml) are added to the chamber and allowed to distribute for 2 minutes at a high flow rate. The flow rate is then decreased resulting in a calculated flow shear of 1 dyne/cm^2. Video sequences of 10 low power fields are digitally recorded after 5 minutes continuous flow. The percentage of inhibition is calculated from the mean number of cells per field that attached to the coated dish surface in the presence versus absence of compound […].

[3] = system: human E-selectin-IgG chimera; test: Flow chamber assay, cell adhesion and rolling under flow conditions, E-selectin; type: cell-based; conditions: normalized ratio of %-inhibition of compound divided by %-inhibition of bimosiamose; 125 μM compound; HL-60 cells; flow shear 1 dyne/cm^2
Description: as §4, §5, §6

[4] = target: T2, human P-Selectin-IgG-chimera (Homo sapiens, UniProt P16109); test: Sialyl Lewis X Tyrosine Sulfate Assay (sLex TSA), P-selectin; type: binding; conditions: sLexTSA
T2 sequence (P16109 42-771 limits assumed): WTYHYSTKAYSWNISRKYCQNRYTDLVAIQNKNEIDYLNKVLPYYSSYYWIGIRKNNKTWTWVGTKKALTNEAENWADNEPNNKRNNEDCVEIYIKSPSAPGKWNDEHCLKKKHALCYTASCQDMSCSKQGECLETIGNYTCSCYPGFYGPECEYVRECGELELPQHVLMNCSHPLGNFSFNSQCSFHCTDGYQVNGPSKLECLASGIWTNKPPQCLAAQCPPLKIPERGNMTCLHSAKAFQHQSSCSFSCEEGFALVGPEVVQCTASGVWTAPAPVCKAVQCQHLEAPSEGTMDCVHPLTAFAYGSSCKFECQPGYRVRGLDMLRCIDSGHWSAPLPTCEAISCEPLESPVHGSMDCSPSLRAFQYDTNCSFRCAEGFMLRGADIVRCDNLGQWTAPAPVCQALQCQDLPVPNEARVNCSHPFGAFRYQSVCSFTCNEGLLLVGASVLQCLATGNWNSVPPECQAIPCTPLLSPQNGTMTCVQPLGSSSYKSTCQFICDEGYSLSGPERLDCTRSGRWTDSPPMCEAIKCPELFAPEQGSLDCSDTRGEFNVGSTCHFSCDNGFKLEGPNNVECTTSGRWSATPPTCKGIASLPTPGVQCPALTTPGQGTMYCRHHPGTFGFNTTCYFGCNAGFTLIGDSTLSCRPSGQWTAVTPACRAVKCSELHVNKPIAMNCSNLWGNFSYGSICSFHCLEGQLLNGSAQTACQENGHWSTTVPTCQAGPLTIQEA
Description: as §1, §2, §3

With `O=C(O)Cc1cccc(-c2cc(CCCCCCc3ccc(O[C@H]4O[C@H](CO)[C@@H](O)[C@H](O)[C@@H]4O)c(-c4cccc(CC(=O)O)c4)c3)ccc2O[C@H]2O[C@H](CO)[C@@H](O)[C@H](O)[C@@H]2O)c1` [Bimosiamose, bimosiamose, reference compound] the IC50 [1] was > 500 µM.
`Cc1oc(-c2ccc(NC(=O)Cc3ccc(O)cc3O)cc2)cc1C(=O)O` [Compound 29, 5-{4-[2-(2,4-Dihydroxy-phenyl)-acetylamino]-phenyl}-2-methyl-furan-3-carboxylic acid] was tested, and the “P-Selectin [Ratio]” value [2] was 0.74 Ratio and the “E-Selectin [Ratio]” value [3] was 1.31 Ratio.
For `Cc1oc(-c2ccc(NC(=O)Cc3cc(O)cc(O)c3)cc2)cc1C(=O)O` [Compound 31, 5-{4-[2-(3,5-Dihydroxy-phenyl)-acetylamino]-phenyl}-2-methyl-furan-3-carboxylic acid], the “P-Selectin [Ratio]” value [2] was 0.60 Ratio and the “E-Selectin [Ratio]” value [3] was 1.16 Ratio.
In the case of `COc1ccc(-c2cccc(C(=O)Nc3ccccc3-c3ccc(CC(=O)O)s3)c2)c(OC)c1` [Compound 62, (5-{2-[(2′,4′-Dimethoxy-biphenyl-3-carbonyl)-amino]-phenyl}-thiophen-2-yl)acetic acid], the IC50 [1] is reported as 151 µM, the “P-Selectin [Ratio]” value [2] is reported as 1.22 Ratio and the IC50 [4] is reported as 62.9 µM. For the same molecule, the “E-Selectin [Ratio]” value [3] was 1.15 Ratio.
For `O=C(O)Cc1ccc(-c2ccccc2NC(=O)c2cccc(-c3ccc(O)cc3O)c2)s1` [Compound 63, (5-{2-[(2′,4′-Dihydroxy-biphenyl-3-carbonyl)-amino]-phenyl}-thiophen-2-yl)acetic acid], the IC50 [1] was 157 µM, the “P-Selectin [Ratio]” value [2] was 1.95 Ratio and the IC50 [4] was 81.2 µM. For the same molecule, the “E-Selectin [Ratio]” value [3] was 1.31 Ratio.
With `COC(=O)Cc1ccc(-c2ccccc2NC(=O)c2cccc(-c3ccc(O)cc3O)c2)s1` [Compound 64, (5-{2-[(2′,4′-Dihydroxy-biphenyl-3-carbonyl)-amino]-phenyl}-thiophen-2-yl)acetic acid methyl ester] the IC50 [1] was 62.3 µM, the “P-Selectin [Ratio]” value [2] was 1.70 Ratio and the IC50 [4] was 50 µM. The “E-Selectin [Ratio]” value [3] was 1.34 Ratio.
In the case of `COc1ccc(-c2cccc(C(=O)Nc3ccccc3-c3ccc(C(=O)O)s3)c2)c(OC)c1` [Compound 66], the IC50 [1] is reported as 152 µM, the “P-Selectin [Ratio]” value [2] is reported as 0.76 Ratio and the IC50 [4] is reported as 67.8 µM. The “E-Selectin [Ratio]” value [3] was 1.21 Ratio.
`O=C(Nc1ccccc1-c1ccc(C(=O)O)s1)c1cccc(-c2ccc(O)cc2O)c1` [Compound 67] was tested, and the IC50 [1] was 434 µM, the “P-Selectin [Ratio]” value [2] was 0.92 Ratio and the IC50 [4] was 201 µM. For the same molecule, the “E-Selectin [Ratio]” value [3] was 1.60 Ratio.
`O=C(O)Cc1ccc(-c2ccccc2NC(=O)Cc2cccc(-c3ccc(O)cc3O)c2)s1` [Compound 70, (5-{2-[2-(2′,4′-Dihydroxy-biphenyl-3-yl)-acetylamino]-phenyl}-thiophen-2-yl)-acetic acid] was tested, and the “P-Selectin [Ratio]” value [2] was 0.82 Ratio, the IC50 [4] was 354 µM and the “E-Selectin [Ratio]” value [3] was 0.83 Ratio.
For `COC(=O)Cc1ccc(-c2ccccc2NC(=O)c2cncc(-c3ccc(O)cc3O)c2)s1` [Compound 74, [5-(2-{[5-(2,4-Dihydroxy-phenyl)-pyridine-3-carbonyl]-amino}-phenyl)-thiophen-2-yl]-acetic acid methyl ester], the “P-Selectin [Ratio]” value [2] was 1.02 Ratio and the “E-Selectin [Ratio]” value [3] was 0.68 Ratio.
In the case of `O=C(O)c1cccc(NC(=O)c2cccc(-c3ccc(O)cc3O)c2)c1` [Compound 79, 3-[(2′,4′-Dihydroxy-biphenyl-3-carbonyl)-amino]-benzoic acid], the “P-Selectin [Ratio]” value [2] is reported as 1.19 Ratio and the “E-Selectin [Ratio]” value [3] is reported as 0.96 Ratio.
`O=C(O)Cc1ccc(-c2ccccc2NC(=O)c2cccc(-c3cc(O)cc(O)c3)c2)s1` [Compound 82, (5-{2-[(3′,5′-Dihydroxy-biphenyl-3-carbonyl)-amino]-phenyl}-thiophen-2-yl)-acetic acid] was tested, and the “P-Selectin [Ratio]” value [2] was 2.11 Ratio and the “E-Selectin [Ratio]” value [3] was 1.35 Ratio.
In the case of `O=C(Nc1ccccc1-c1ccc(C(=O)O)s1)c1cccc(-c2cc(O)cc(O)c2)c1` [Compound 85, 5-{2-[(3′,5′-Dihydroxy-biphenyl-3-carbonyl)-amino]-phenyl}-thiophene-2-carboxylic acid], the “P-Selectin [Ratio]” value [2] is reported as 1.90 Ratio and the “E-Selectin [Ratio]” value [3] is reported as 1.20 Ratio.
In the case of `O=C(Nc1ccccc1-c1cccs1)c1cccc(-c2ccc(O)cc2O)c1` [Compound 87, 2′,4′-Dihydroxy-biphenyl-3-carboxylic acid (2-thiophen-2-yl-phenyl)-amide], the “P-Selectin [Ratio]” value [2] is reported as 1.05 Ratio and the “E-Selectin [Ratio]” value [3] is reported as 1.24 Ratio.
For `COc1ccc(-c2cccc(C(=O)Nc3cccc(-c4ccc(CC(=O)O)s4)c3)c2)c(OC)c1` [Compound 89, (5-{3-[(2′,4′-Dimethoxy-biphenyl-3-carbonyl)-amino]-phenyl}-thiophen-2-yl)-acetic acid], the “P-Selectin [Ratio]” value [2] was 1.41 Ratio and the “E-Selectin [Ratio]” value [3] was 1.27 Ratio.
Molecule `O=C(O)Cc1ccc(-c2cccc(NC(=O)c3cccc(-c4ccc(O)cc4O)c3)c2)s1` [Compound 90, (5-{3-[(2′,4′-Dihydroxy-biphenyl-3-carbonyl)-amino]-phenyl}-thiophen-2-yl)-acetic acid] has an IC50 [1] of 38.7 µM and an IC50 [4] of 19.1 µM.
For `Cc1oc(-c2ccc(NC(=O)c3cccc(-c4ccc(O)cc4O)c3)nc2)cc1C(=O)O` [Compound 93, 5-{6-[(2′,4′-Dihydroxy-biphenyl-3-carbonyl)-amino]-pyridin-3-yl}-2-methyl-furan-3-carboxylic acid], the “P-Selectin [Ratio]” value [2] was 1.13 Ratio and the “E-Selectin [Ratio]” value [3] was 0.86 Ratio.
For `Cc1oc(-c2ccc(NC(=O)c3cccc(-c4ccc(O)cc4O)c3)cc2)cc1C(=O)O` [Compound 96, 5-{4-[(2′,4′-Dihydroxy-biphenyl-3-carbonyl)-amino]-phenyl}-2-methyl-furan-3-carboxylic acid], the “P-Selectin [Ratio]” value [2] was 1.02 Ratio and the “E-Selectin [Ratio]” value [3] was 1.13 Ratio.
`O=C(Nc1cccc(C(F)(F)F)c1)c1cccc(-c2ccc(O)cc2O)c1` [Compound 98, 2′,4′-Dihydroxy-biphenyl-3-carboxylic acid (3-trifluoromethyl-phenyl)-amide] was tested, and the “P-Selectin [Ratio]” value [2] was 1.00 Ratio and the “E-Selectin [Ratio]” value [3] was 1.26 Ratio.
